Assay results from patent publication US8828930B2, “Hepatitis C virus NS3 protease inhibitors” (Merck Sharp & Dohme Corp., priority 2009, dated 2014).
pEC50, pKi: −log10 of the molar value. Where two headings read alike, the source gives them in different places.

Tests used:
NS3/4A protease gt 1b = NS3/4A protease gt 1b (Hepatitis C virus genotype 1b, UniProt P26663); assay: HCV NS3 protease time-resolved fluorescence (TRF) assay, NS3/4A inhibitory activity (Ki), gt 1b; assay type: biochemical; settings: NS3/4A enzyme
Procedure: (§1) The HCV NS3 protease inhibitory activity of the present compounds may be tested using assays known in the art. One such assay is HCV NS3 protease time-resolved fluorescence (TRF) assay as described below and in WO 2006/102087. Other examples of such assays are described in, for example, WO 2005/046712. HCV NS3 protease inhibitors, such as those described herein have a Ki less than 50 μM, such as less than 10 μM, and less than 100 nM. Ki is determined by an NS3 protease assay. The assay is performed in a final volume of 100 μl in assay buffer containing 50 mM HEPES, pH 7.5, 150 mM NaCl, 15% glycerol, 0.15% TRITON X-100, 10 mM DTT, and 0.1% PEG 8000. NS3 protease is preincubated with various concentrations of inhibitors in DMSO for 30 minutes. The reaction is initiated by adding the TRF peptide substrate (final concentration 100 nM). NS3 mediated hydrolysis of the substrate is quenched after 1 hour at room temperature with 100 μl of 500 mM MES, pH 5.5. Product fluorescence is detected using either a VICTOR V2 or FUSION fluorophotometer (PERKIN ELMER LIFE AND ANALYTICAL SCIENCES) with excitation at 340 nm and emission at 615 nm with a 400 μs delay. Testing concentrations of different enzyme forms are selected to result in a signal to background ratio (SIB) of 10-30. IC50 values are derived using a standard four-parameter fit to the data. Ki values are derived from IC50 values using the following formula, IC50=Ki(1+[S]/KM), Eqn (1), where [S] is the concentration of substrate peptide in the reaction and KM is the Michaelis constant. See Paola Gallinari et al., Modulation of Hepatitis C Virus NS3 Protease and Helicase Activities through the Interaction with NS4A, 38 BIOCHEM. 5620 (1999); Paola Gallinari et al., Multiple Enzymatic Activities Associated with Recombinant NS3 Protein of Hepatitis C Virus, 72(8) J. VIROLOGY 6758 (1998); Mariana Taliani et al., A Continuous Assay of Hepatitis C Virus Protease Based on Resonance Energy Transfer Depsipeptide Substrates, 240 ANAL. BIOCHEM. 60 (1996).
(§2) This NS3 protease assay was performed in a final volume of 100 μl assay buffer containing 50 mM HEPES, pH 7.5, 150 mM NaCl, 15% glycerol, 0.15% TRITON X-100, 10 mM DTT, and 0.1% PEG 8000. NS3/4A protease was pre-incubated with various concentrations of inhibitors in DMSO for 30 minutes. The reaction was initiated by adding the TRF peptide substrate (final concentration 100 nM). NS3 mediated hydrolysis of the substrate was quenched after 1 hour at RT with 100 μl of 500 mM MES, pH 5.5. Product fluorescence was detected using either a V1CTOR V2 or FUSION fluorophotometer (PERKIN ELMER LIFE AND ANALYTICAL SCIENCES) with excitation at 340 nm and emission at 615 nm with a 400 us delay. Testing concentrations of different enzyme forms were selected to result in a signal to background ratio (SIB) of 10-30. IC50 values were derived using a standard four-parameter fit to the data. K, values are derived from IC50 values using the following formula, IC50=Ki(1+[S]/KM), Eqn (1), where [S] is the concentration of substrate peptide in the reaction and KM is the Michaelis constant. See Paola Gallinari et al., Modulation of Hepatitis C Virus NS3 Protease and Helicase Activities through the Interaction with NS4A, 38 BIOCHEM. 5620 (1999); Paola Gallinari et al., Multiple Enzymatic Activities Associated with Recombinant NS3 Protein of Hepatitis C Virus, 72(8) J. VIROLOGY 6758 (1998); Mariana Milani et al., A Continuous Assay of Hepatitis C Virus Protease Based on Resonance Energy Transfer Depsipeptide Substrates, 240 ANAL. BIOCHEM. 60 (1996); Shi-Shan Mao et al., A time-resolved, internally quenched fluorescence assay to characterize inhibition of hepatitis C virus nonstructural protein 3-4A protease at low enzyme concentrations, 373 ANALYTICAL BIOCHEMISTRY 1 (2008). Measuring Compound Inhibitory Potency (Replicon EC50 (nM))

[1] = molecular target: NS3/4A protease gt 1b A156V (Hepatitis C virus genotype 1b, UniProt P26663, A1182V); assay: HCV NS3 protease time-resolved fluorescence (TRF) assay, NS3/4A inhibitory activity (Ki), gt 1b A156V; assay type: biochemical
Procedure: as §1, §2

NS3/4A protease gt 3a = NS3/4A protease gt 3a (Hepatitis C virus genotype 3a, UniProt Q81258); assay: HCV NS3 protease time-resolved fluorescence (TRF) assay, NS3/4A inhibitory activity (Ki), gt 3a; assay type: biochemical; settings: NS3/4A enzyme
Procedure: as §1, §2

HCV gt 1b replicon = assay: HCV replicon assay, compound inhibitory potency (Replicon EC50); assay type: cell-based; settings: Hepatitis C virus, GT1B
Procedure: Measurement of inhibition by compounds was performed using the HCV replicon system. Several different replicons encoding different HCV genotypes or mutations were used. In addition, potency measurements were made using different formats of the replicon assay, including different ways of measurements and different plating formats. See Jan M. Vrolijk et al., A replicon-based bioassay for the measurement of interferons in patients with chronic hepatitis C, 110 J. VIROLOGICAL METHODS 201 (2003); Steven S. Carroll et al., Inhibition of Hepatitis C Virus RNA Replication by 2′-Modified Nucleoside Analogs, 278(14) J. BIOLOGICAL CHEMISTRY 11979 (2003). However, the underlying principles are common to all of these determinations, and are outlined below.
Stable neomycin phosphotransferase encoding replicon-harboring cell lines were used, so all cell lines were maintained under G418 selection prior to the assay. In some cases the cell lines encoded a luciferase:NEO FUSION and could be assayed either directly by determination of RNA copy number, or indirectly through measurement of the luciferase activity.
To initiate an assay, replicon cells were plated in the presence of a dilution series of test compound in the absence of G418. Typically, the assays were performed in a 96-well plate format for manual operation, or a 384-well plate in an automated assay. Replicon cells and compound were incubated for 24 to 48 hours, depending on the assay. At the end of the assay, cells are washed free of media and compound and then lysed. For direct quantitation, RNA levels were measured by 32P-probe hybridization and protection, or in a TAQMAN-based assay and normalized to cellular cyclophilin A RNA levels. In some cases, luciferase activity was measured using a conventional luciferase assay. In all cases, EC50 determinations were calculated as a percent of a DMSO control by fitting the data to a four-parameter fit function.

[2] = Plasma and liver concentrations and pharmacokinetics (Rat PK); assay type: in vivo; set-up: Rat PK 5 mpk AUC: unit not given here; settings: for concentration at 4 h: 5 mg/kg, 5 mpk, liver concentration at 4 h; for Rat PK 5 mpk AUC: area under the plasma concentration/time curve
Procedure: Test compounds were dissolved in a suitable dosing vehicle for i.v. administration (e.g., 20%:60%:20% DMSO:PEG400:H2O) or per oral administration (e.g., 10% POLYSORBATE80:90% H2O or 100% PEG400). Animals were administered (n=2 or 3) using a crossover study design for non-rodents. Plasma samples were collected at time points between 2 minutes and 24 hours, and compound levels were determined by RP-LC/MS/MS. Liver samples were collected post-mortem in rat. Liver samples were weighed, homogenized, and diluted using techniques known to those skilled in the art, and compound levels were determined by RP-LC/MS/MS.
Pharmacokinetic parameters were calculated based on non-compartmental analysis (e.g., using WATSON, WINNOLIN). Predose concentrations that were below the limit of quantitation (BLQ) were assigned a value of 0, Standard pharmacokinetic parameters CLp, Vdss, half-life (only for IV), % F, Cmax, Tmax, AUC0-last, AUC0-infinity were calculated. AUC values were calculated using linear trapezoidal method for ascending concentrations and the log trapezoidal method for descending concentrations.

[3] = 10% fetal bovine serum, read-out: gt 1b Replicon EC50 10% FBS
[4] = 50% normal human serum, read-out: gt 1b Replicon EC50 50% NHS

| SMILES | pKi (NS3/4A protease gt 1b) | pKi [1] | pKi (NS3/4A protease gt 3a) | pEC50 (HCV gt 1b replicon; [3]) | pEC50 (HCV gt 1b replicon; [4]) | concentration at 4 h [2] [µM] | Rat PK 5 mpk AUC [2] |
| --- | --- | --- | --- | --- | --- | --- | --- |
| COc1ccc2nc3c(nc2c1)O[C@@H]1C[C@H]2C(=O)N[C@]4(C(=O)NS(=O)(=O)C5CC5)C[C@H]4/C=C\CCCCC[C@H](NC(=O)O[C@@H]4CCC[C@H]4CCCCC3)C(=O)N2C1 [Example 1, (3R,20R,24R,28S,34Z,36S,38R,41S)—N-(Cyclopropylsulfonyl)-9-methoxy-26,40,42-trioxo-4,25-dioxa-1,6,13,27,39-pentaazaheptacyclo[26.13.1.1^3,41.0^5,14.0^7,12.0^20,24,0^36,38]tritetraconta-5,7,9,11,13,34-hexaene-38-carboxamide] | 9.80 | 8.80 | 9.35 | 8.70 | 8.05 | 3.6 | 0 |
| COc1ccc2nc3c(nc2c1)O[C@@H]1C[C@H]2C(=O)N[C@]4(C(=O)NS(=O)(=O)C5(C)CC5)C[C@H]4/C=C\CCCCC[C@H](NC(=O)O[C@@H]4CCC[C@H]4CCCCC3)C(=O)N2C1 [Example 2, (3R,20R,24R,28S,34Z,36S,38R,41S)-9-Methoxy-N-[(1-methylcyclopropyl)sulfonyl]-26,40,42-trioxo-4,25-dioxa-1,6,13,27,39-pentaazaheptacyclo[26.13.1.1^3,41.0^5,14.0^7,12.0^20,24.0^36,38]tritetraconta-5,7,9,11,13,34-hexaene-38-carboxamide] | 10.30 | 8.96 | 9.32 | 8.70 | 8.00 | 43 | 0.55 |
| COc1ccc2nc3c(nc2c1)O[C@@H]1C[C@H]2C(=O)N[C@]4(C(=O)NS(=O)(=O)C5CC5)C[C@H]4/C=C\CCCCC[C@H](NC(=O)O[C@@H]4C[C@H]4CCCCC3)C(=O)N2C1 [Example 3, (3R,20R,22R,26S,32Z,34S,36R,39S)—N-(Cyclopropylsulfonyl)-9-methoxy-24,38,40-trioxo-4,23-dioxa-1,6,13,25,37-pentaazaheptacyclo[24.13.1.1^3,39.0^5,14.0^7,12.0^20,22.0^34,36]hentetraconta-5,7,9,11,13,32-hexaene-36-carboxamide] | 10.70 | 9.10 | 9.62 | 8.70 | 8.10 | 13 | 0.19 |
| COc1ccc2nc3c(nc2c1)O[C@@H]1C[C@H]2C(=O)N[C@]4(C(=O)NS(=O)(=O)C5(C)CC5)C[C@H]4/C=C\CCCCC[C@H](NC(=O)O[C@@H]4C[C@H]4CCCCC3)C(=O)N2C1 [Example 4, (3R,20R,22R,26S,32Z,34S,36R,39S)-9-Methoxy-N-[(1-methylcyclopropyl)sulfonyl]-24,38,40-trioxo-4,23-dioxa-1,6,13,25,37-pentaazaheptacyclo[24.13.1.1^3,39.0^5,14.0^7,12.0^20,22.0^34,36]hentetraconta-5,7,9,11,13,32-hexaene-36-carboxamide] | 10.40 | 9.22 | 9.57 | 8.70 | 8.40 | 19 | 0.1 |
| COc1ccc2nc3c(nc2c1)O[C@@H]1C[C@H]2C(=O)N[C@]4(C(=O)NS(=O)(=O)C5CC5)C[C@H]4/C=C\CCCCC[C@H](NC(=O)O[C@]4(C)C[C@H]4CCCCC3)C(=O)N2C1 [Example 5, (3R,20R,22R,26S,32Z,34S,36R,39S)—N-(Cyclopropylsulfonyl)-9-methoxy-22-methyl-24,38,40-trioxo-4,23-dioxa-1,6,13,25,37-pentaazaheptacyclo[24.13.1.1^3,39.0^5,14.0^7,12.0^20,22.0^34,36]hentetraconta-5,7,9,11,13,32-hexaene-36-carboxamide] | 10.70 | 9.15 | 9.60 | 9.00 | 8.22 | 20 | 0.18 |
| COc1ccc2nc3c(nc2c1)O[C@@H]1C[C@H]2C(=O)N[C@]4(C(=O)NS(=O)(=O)C5(C)CC5)C[C@H]4/C=C\CCCCC[C@H](NC(=O)O[C@]4(C)C[C@H]4CCCCC3)C(=O)N2C1 [Example 6, (3R,20R,22R,26S,32Z,34S,36R,39S)-9-Methoxyl-22-methyl-N-[(1-methylcyclopropyl)sulfonyl]-24,38,40-trioxo-4,23-dioxa-1,6,13,25,37-pentaazaheptacyclo[24.13.1.1^3,39.0^5,14.0^7,12.0^20,22.0^34,36]hentetraconta-5,7,9,11,13,32-hexaene-36-carboxamide] | 10.52 | 9.22 | 9.49 | 9.00 | 8.40 | 24 | 0.16 |
